Literature values, collected in Sander's compilation of Henry's law constants (doi:10.1016/s0016-7037(99)00330-0).

Assay: Henry solubility constant Hcp at 298.15 K (mol/(m3 Pa))
Conditions: reference: Plyasunov and Shock (2000); cited value

Henry solubility constant Hcp | SMILES
0.00075 | C#CC [propyne]
1.1e-05 | C[C@H]1CC[C@H](C)CC1 [trans-1,4-dimethylcyclohexane]
4.9e-05 | CC1(C)C2CC3C(C2)C31C [tricyclene]

The next lines start with the compound.

SMILES | Henry solubility constant Hcp
CCCCCC1CCCC1 [pentylcyclopentane] | 5.3e-06
C=CC [propene] | 5.6e-05
CCCc1ccccc1 [propylbenzene] | 0.00091
CCCCCCCCCCCCCC [tetradecane] | 9.3e-07
CC1=CCC(C(C)C)C=C1 (stereo not drawn) [α-phellandrene] | 0.00018
